Assay [1] has as its target T1, p67^phox binding to Rac1V12 (Homo sapiens, UniProt P19878).
T1 construct: using the pET30-HIS p67(1-212) plasmid; His; made in house; host or cells: E. coli BL21(DE3) for p67phox
T1 sequence (P19878 1-212): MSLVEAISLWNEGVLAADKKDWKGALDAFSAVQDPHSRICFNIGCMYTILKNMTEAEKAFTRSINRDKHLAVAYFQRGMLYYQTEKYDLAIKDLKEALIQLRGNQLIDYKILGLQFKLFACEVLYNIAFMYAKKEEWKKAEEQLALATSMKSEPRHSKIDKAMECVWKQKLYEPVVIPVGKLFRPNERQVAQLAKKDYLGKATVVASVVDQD
Description: competition binding of p67phox with Rac1V12 by microscale thermophoresis. Particulars: 5 μM, 15 min prior to titration of Rac1V12. The procedure: (§1) Proteins were labeled for microscale thermophoresis using the Monolith NT Protein Labeling Kit Red (Nano Temper Technologies) as recommended by the manufacturer. Binding reactions were carried out using the Monolith NT. 115 (Nano Temper Technologies). Binding data was analyzed using Graphpad Prizm to estimate Kd values. The arbitrary fluorescence value from the thermophoresis plots for the smallest compound titration was subtracted from every other data point (Delta depletion) prior to normalization to a Vmax of 100. In thermophoresis plots where there was no binding, a curve could not be fit and therefore no Vmax could be assigned. In these instances the highest delta depletion value was set to 100 and all data were normalized accordingly.
Next, to perform a competition binding, p67^phox protein was first incubated with either 5 μM Phox-I1 or an equal volume of vehicle control for 15 min prior to titration of purified Rac1V12 protein. […] Thus, Phox-I1 binding to p67^phox is specific and not due to nonspecific effects, such as aggregation.
For orientation: In MST a laser heats a spot of the sample, and binding alters the fluorescence response.

For assay [2], the target named is T2, Rac1V12 protein (Homo sapiens, UniProt P63000, G12V).
T2 construct: GST; made in house
The experiment in a line: microscale thermophoresis binding to Rac1V12. The note with it: various concentrations. The procedure:
The p67^phox protein was expressed in BL21(DE3) bacteria (Stratagene) using the pET30-HIS p67(1-212) plasmid. Protein was purified using the QIAexpress Ni-NTA kit (Qiagen) or the GST Bind Resin Chromatography Kit (Novagen) for RacV12 and RacWT proteins. Mutagenesis was carried out using the Quick Change Lightening Site Directed Mutagenesis Kit (Stratagene).
as §1
Next, to perform a competition binding, p67^phox protein was first incubated with either 5 μM Phox-I1 or an equal volume of vehicle control for 15 min prior to titration of purified Rac1V12 protein. […]

The test system of assay [3] is primary murine neutrophils. The experiment in a line: H2-DCFDA FACS ROS production assay in primary murine neutrophils. Format: cell-based, mouse. The note with it: 10 μM and 20 μM. As for the experimental part: HL-60 cells were propagated in RPMI 1640 medium containing 10% heat inactivated fetal bovine serum, 2 mM L-glutamine, 100 U/mL penicillin/streptomycin at 37° C. in air containing 5% CO2. For differentiation, HL-60 cells were cultured in 1.3% dimethyl sulfoxide (DMSO) as previously described (Servant, G., et al. (1999) Mol Biol Cell 10, 1163-1178, hereby incorporated by reference in its entirety). Primary murine neutrophils were isolated from C57Bl/6 mouse bone marrow according to a published protocol (Filippi et al., (2004) Nat Immunol 5, 744-751, hereby incorporated by reference in its entirety) using a discontinuous Percoll (Pharmacia) gradient and were utilized immediately in experiments. […]
Cells (5×10^5) were harvested and processed for Annexin V/7AAD staining according to manufacturer's protocol (Becton Dickinson). Flow cytometry data were acquired on a FACS Canto bench-top flow cytometer (Becton Dickinson) and the cell cycle distributions were determined by […] using Flo-Jo software (Bosco et al (2010) Blood 115, 3320-3328, hereby incorporated by reference in its entirety). […] Cells were then stimulated with 10 μM fMLP (Sigma), 1 mM CaCl2, and 1.5 mM MgCl2 for 15 minutes prior to wash and FACS analysis for mean fluorescence intensity. […]

Entries after “also recorded” stand apart in the source; their conditions may differ.

Consider `COc1ccc2c(c1)C1C=C(c3ccccc3)NN1C(c1cccc([N+](=O)[O-])c1)O2` (stereo not drawn) [Phox-I1], for which the “competition with Rac1V12 for p67^phox” value in assay [1] is “disruption of p67^phox binding to Rac1V12”. Moreover, the “binding to Rac1V12” value in assay [2] is “unable to bind; also recorded: no detectable binding”. Also, in assay [3], the “inhibition of fMLP-stimulated ROS production” value is “able to inhibit ROS production nearly as well as DPI at 100 μM concentration”.

The record behind these values is patent US9567347B2, “Use of small molecule inhibitors targeting the interaction between RAC GTPase and p67(phox)” (CHILDREN'S HOSPITAL MEDICAL CENTER, priority 2012, dated 2017).
